“And” between values parts separate entries of the source, which are not always exact repeats. Equal values may be shown once. Toxic doses and inconclusive results are not listed.
System: C57BL/6 mice, intracerebral ependymoblastoma, median survival T/C
Test: NCI In Vivo Anticancer Drug Screen. Data for tumor model Ependymoblastoma (intracerebral) in C57BL/6 mice
Conditions: endpoint: median survival time, higher = longer survival
Method: The antitumor activity of compounds was measured in mice bearing transplantable tumors. Survival or tumor size were measured and the results are expressed as the measurement made in the treated group (T) divided by the measurement made in the vehicle treated control group (C). The tumor model used in this assay is Ependymoblastoma (intracerebral) in C57BL/6 mice

[1] = dose: 32.0 mg/kg/injection, schedule: Q01DX005 (ip), vehicle: Klucel (hydroxypropylcellulose) (HPC)
[2] = dose: 64.0 mg/kg/injection, schedule: Q01DX005 (ip), vehicle: Klucel (hydroxypropylcellulose) (HPC)
[3] = dose: 128.0 mg/kg/injection, schedule: Q01DX005 (ip), vehicle: Klucel (hydroxypropylcellulose) (HPC)
[4] = dose: 256.0 mg/kg/injection, schedule: Q01DX005 (ip), vehicle: Klucel (hydroxypropylcellulose) (HPC)

CCC(=O)O[C@H]1CC[C@H]2[C@@H]3[C@@H](C)CC4=CC(=O)CC[C@]4(C)[C@H]3CC[C@]12C
T/C [1]: 104 % of control | T/C [2]: 105 % of control and 106 % of control | T/C (dose: 128.0 mg/kg/injection, schedule: Q01DX001 (ip), vehicle: Klucel (hydroxypropylcellulose) (HPC)): 106 % of control | T/C [3]: 105 % of control and 111 % of control | T/C (dose: 128.0 mg/kg/injection, schedule: Q01DX005 (oral), vehicle: Klucel (hydroxypropylcellulose) (HPC)): 109 % of control | T/C (dose: 256.0 mg/kg/injection, schedule: Q01DX001 (ip), vehicle: Klucel (hydroxypropylcellulose) (HPC)): 93 % of control | T/C [4]: 103 % of control and 113 % of control | T/C (dose: 256.0 mg/kg/injection, schedule: Q01DX005 (oral), vehicle: Klucel (hydroxypropylcellulose) (HPC)): 97 % of control | T/C (dose: 512.0 mg/kg/injection, schedule: Q01DX001 (ip), vehicle: Klucel (hydroxypropylcellulose) (HPC)): 103 % of control | T/C (dose: 512.0 mg/kg/injection, schedule: Q01DX005 (ip), vehicle: Klucel (hydroxypropylcellulose) (HPC)): 105 % of control and 107 % of control | T/C (dose: 512.0 mg/kg/injection, schedule: Q01DX005 (oral), vehicle: Klucel (hydroxypropylcellulose) (HPC)): 90 % of control | T/C (dose: 1024.0 mg/kg/injection, schedule: Q01DX001 (ip), vehicle: Klucel (hydroxypropylcellulose) (HPC)): 96 % of control | T/C (dose: 1024.0 mg/kg/injection, schedule: Q01DX005 (oral), vehicle: Klucel (hydroxypropylcellulose) (HPC)): 113 % of control

CCCN(C)C(=O)N(CCCl)N=O
T/C (dose: 39.0 mg/kg/injection, schedule: Q01DX001 (ip), vehicle: other): 182 % of control | T/C (dose: 62.5 mg/kg/injection, schedule: Q01DX001 (ip), vehicle: other): 309 % of control | T/C (dose: 78.0 mg/kg/injection, schedule: Q01DX001 (ip), vehicle: other): 227 % of control | T/C (dose: 125.0 mg/kg/injection, schedule: Q01DX001 (ip), vehicle: other): 309 % of control | T/C (dose: 156.0 mg/kg/injection, schedule: Q01DX001 (ip), vehicle: other): 308 % of control

C(COCCOCC1CO1)OCCOCC1CO1 (centres undefined)
T/C (dose: 50.0 mg/kg/injection, schedule: Q01DX005 (ip), vehicle: saline with Tween-80): 93 % of control | T/C (dose: 100.0 mg/kg/injection, schedule: Q01DX005 (ip), vehicle: saline with Tween-80): 96 % of control | T/C (dose: 200.0 mg/kg/injection, schedule: Q01DX005 (ip), vehicle: saline with Tween-80): 96 % of control | T/C (dose: 400.0 mg/kg/injection, schedule: Q01DX005 (ip), vehicle: saline with Tween-80): 113 % of control

Clc1ccc(C(c2ccc(Cl)cc2)C(Cl)(Cl)Cl)cc1
T/C (dose: 8.0 mg/kg/injection, schedule: Q01DX005 (ip), vehicle: Klucel (hydroxypropylcellulose) (HPC)): 92 % of control | T/C (dose: 16.0 mg/kg/injection, schedule: Q01DX005 (ip), vehicle: Klucel (hydroxypropylcellulose) (HPC)): 101 % of control | T/C [1]: 96 % of control

COc1cc2cc3c4cc(OC)c(OC)cc4cc[n+]3c(C)c2cc1OC (tested in a mixture with another compound)
T/C (dose: 8.0 mg/kg/injection, schedule: Q01DX001 (ip), vehicle: saline): 98 % of control | T/C (dose: 16.0 mg/kg/injection, schedule: Q01DX001 (ip), vehicle: saline): 91 % of control | T/C (dose: 16.0 mg/kg/injection, schedule: Q#A X002 (ip), vehicle: saline): 94 % of control | T/C (dose: 32.0 mg/kg/injection, schedule: Q01DX001 (ip), vehicle: saline): 90 % of control | T/C [1]: 89 % of control | T/C (dose: 32.0 mg/kg/injection, schedule: Q#A X002 (ip), vehicle: saline): 97 % of control and 105 % of control | T/C (dose: 64.0 mg/kg/injection, schedule: Q01DX001 (oral), vehicle: saline): 100 % of control and 104 % of control | T/C [2]: 103 % of control and 107 % of control | T/C (dose: 64.0 mg/kg/injection, schedule: Q#A X002 (ip), vehicle: saline): 111 % of control | T/C (dose: 128.0 mg/kg/injection, schedule: Q01DX001 (oral), vehicle: saline): 100 % of control and 103 % of control | T/C [3]: 118 % of control and 121 % of control | T/C (dose: 128.0 mg/kg/injection, schedule: Q#A X002 (ip), vehicle: saline): 103 % of control and 106 % of control | T/C (dose: 256.0 mg/kg/injection, schedule: Q01DX001 (ip), vehicle: saline): 87 % of control | T/C (dose: 256.0 mg/kg/injection, schedule: Q01DX001 (oral), vehicle: saline): 88 % of control and 103 % of control | T/C [4]: 118 % of control | T/C (dose: 256.0 mg/kg/injection, schedule: Q#A X002 (ip), vehicle: saline): 87 % of control and 98 % of control | T/C (dose: 512.0 mg/kg/injection, schedule: Q01DX001 (oral), vehicle: saline): 100 % of control and 102 % of control | T/C (dose: 1024.0 mg/kg/injection, schedule: Q01DX001 (oral), vehicle: saline): 100 % of control and 107 % of control

Nc1ncnc2nc[nH]c12
T/C (dose: 128.0 mg/kg/injection, schedule: Q01DX005 (ip), vehicle: saline with Tween-80): 92 % of control

COc1ccc(CC2C(=O)NC(C)C(=O)N(C)C3C(=O)N(C)C(Cc4ccc(O)c(c4)Oc4ccc(cc4)C3O)C(=O)NC(C)C(=O)NC(C)C(=O)N2C)cc1 (centres undefined)
T/C (dose: 0.13 mg/kg/injection, schedule: Q01DX005 (ip), vehicle: saline): 103 % of control | T/C (dose: 0.25 mg/kg/injection, schedule: Q01DX005 (ip), vehicle: saline): 98 % of control | T/C (dose: 0.5 mg/kg/injection, schedule: Q01DX005 (ip), vehicle: saline): 98 % of control | T/C (dose: 1.0 mg/kg/injection, schedule: Q01DX005 (ip), vehicle: saline): 95 % of control

COS(C)(=O)=O
T/C (dose: 16.0 mg/kg/injection, schedule: Q01DX005 (ip), vehicle: saline): 113 % of control

N=c1ccn2c(n1)OC1C(O)C(CO)OC12 (centres undefined)
T/C (dose: 100.0 mg/kg/injection, schedule: Q01DX001 (ip), vehicle: saline): 118 % of control | T/C (dose: 100.0 mg/kg/injection, schedule: Q01DX005 (ip), vehicle: saline): 106 % of control and 112 % of control | T/C (dose: 200.0 mg/kg/injection, schedule: Q01DX001 (ip), vehicle: saline): 123 % of control | T/C (dose: 200.0 mg/kg/injection, schedule: Q01DX005 (ip), vehicle: saline): 120 % of control and 122 % of control | T/C (dose: 400.0 mg/kg/injection, schedule: Q01DX001 (ip), vehicle: saline): 111 % of control | T/C (dose: 400.0 mg/kg/injection, schedule: Q01DX005 (ip), vehicle: saline): 122 % of control | T/C (dose: 800.0 mg/kg/injection, schedule: Q01DX001 (ip), vehicle: saline): 116 % of control

CC(C)=CCC1=C(O)c2ccccc2C(=O)C1=O
T/C [1]: 100 % of control | T/C [2]: 94 % of control | T/C [3]: 97 % of control
